Reference: US20250034139A1, “AMINE COMPOUNDS HAVING ANTI-INFLAMMATORY, ANTIFUNGAL, ANTIPARASITIC, AND ANTICANCER ACTIVITY” (PHARMA CINQ, LLC, priority 2013, published 2025)

Legend:
[1] = system: PC3 human prostate cancer cells; experiment: Example S: in vitro anticancer screen, PC-3 cells, Wst1; format: cell-based; conditions: Homo sapiens, PC-3, approximately 20 hours, Wst1, read-out: PC-3, percent of cancer cell survival relative to vehicle treated cells
Procedure: Activity against PC3 human prostate cancer cells in vitro was assessed by a similar method. PC-3 prostate cancer cells were plated at 2×10^4 cells/well in 96 well flat bottom tissue culture plates, and incubated for approximately 20 hours with vehicle or test compounds at concentrations of 0.4, 0.5 or 2.5 μM as indicated for specific compounds in the right-hand column of Table 37. A 1/10th volume of Wst1 dye was added/well and incubated for two hours in the cell culture incubator. Samples were analyzed in triplicate on an EL800 Universal Microplate Reader at 450 nm, reference wavelength 630 nm.
(§1) Numerical values in the Table 37 represent percent of cancer cell survival relative to vehicle treated cells at the indicated concentrations, with values under 100 indicating anticancer cytotoxic activity at the drugs concentrations tested.

[2] = system: 4T1 murine breast cancer cells; experiment: Example S: in vitro anticancer screen, 4T1 cells, Wst1; format: cell-based, mouse; conditions: Mus musculus, 4T1, 18 h, 18 hr, Wst1; for viability at 1 µM: read-out: 4T1 1 μM, percent of cancer cell survival relative to vehicle treated cells; for viability at 5 µM: read-out: 4T1 5 μM, percent of cancer cell survival relative to vehicle treated cells
Procedure: Anticancer activity against 4T1 murine breast cancer cells cancer cells was assessed in vitro by seeding 1×10^4 cells/well in flat bottom culture plates, then treating with selected 1 μM or 5 μM concentrations of compounds for 18 hr after plating. Then 10 μL of Wst1 dye reagent, a tetrazolium dye indicator for […], was added/well and incubated approximately 2 hr before being assayed on the Biotek EL800 Universal microplate reader (450 nm, reference 630 nm).
as §1

[3] = system: THP-1 cells; experiment: Example D: LPS-triggered THP-1 cell death assay, acute/5-hour and chronic/48-hour; format: cell-based, Human; conditions: 10 ng/ml LPS, 0.1 μM test compound, 48 hours
Procedure: Compounds of the invention were tested at 0.1 μM versus AC in the LPS-triggered THP-1 cell death assay. Both acute/5-hour and chronic/48-hour phases of cell death were assessed. Compounds were screened in batches with DMSO as the negative control and AC as the high activity control.

[4] = system: PC-3 prostate cancer cells; experiment: Example T: sensitisation of PC-3 cells to doxorubicin, oxaliplatin, paclitaxel or vincristine, Wst1; format: cell-based, human; conditions: PC-3 cells, 72 hours; for viability at 2.5 µM: compound 2.5 μM alone; for Doxorubicin 3.5 μM: percent cell survival / Oxaliplatin 100 μM: percent cell survival / Paclitaxel 50 μM: percent cell survival / Vincristine 100 nM: percent cell survival: chemotherapy agent alone normalized to 100%
[5] = Homo sapiens, Wst1, vehicle = 100, read-out: No Chemo: percent cell survival
[6] = compound 2.5 μM + doxorubicin 3.5 μM
[7] = compound 2.5 μM + oxaliplatin 100 μM
[8] = compound 2.5 μM + paclitaxel 50 μM
[9] = compound 2.5 μM + vincristine 100 nM

CCCCCCOCCCCCCCCNc1cccc2cnccc12 [FT, N-[8-(Hexyloxy)octyl]isoquinolin-5-amine]
viability at 2.5 µM [1]: 41.1%
viability at 1 µM [2]: 113%
viability at 5 µM [2]: 27.6%
Viable cell percent change, Chronic/48-hour, Mean [3]: 3.59%
viability at 2.5 µM [4, 5]: 41.1%
Doxorubicin 3.5 μM: percent cell survival [4, 6]: 74.4%
Oxaliplatin 100 μM: percent cell survival [4, 7]: 94.2%
Paclitaxel 50 μM: percent cell survival [4, 8]: 85.2%
Vincristine 100 nM: percent cell survival [4, 9]: 78.3%

CCCCCCOCCCOCCCCCn1cnc2cnc3ccccc3c21 [GC, 1-{5-[3-(Hexyloxy)propoxy]pentyl}-1H-imidazo[4,5-c]quinoline]
viability at 2.5 µM [1]: 19.8%
viability at 1 µM [2]: 84.8%
viability at 5 µM [2]: 21.1%
Viable cell percent change, Chronic/48-hour, Mean [3]: 19.30%
viability at 2.5 µM [4, 5]: 19.8%
Doxorubicin 3.5 μM: percent cell survival [4, 6]: 59.5%
Oxaliplatin 100 μM: percent cell survival [4, 7]: 63.2%
Paclitaxel 50 μM: percent cell survival [4, 8]: 30.3%
Vincristine 100 nM: percent cell survival [4, 9]: 26.4%

c1ccc(COc2cccc(Nc3ccnc4ccccc34)c2)cc1 [DM, N-[3-(Benzyloxy)phenyl]quinolin-4-amine]
viability at 2.5 µM [1]: 45.6%
viability at 1 µM [2]: 128%
viability at 5 µM [2]: 47.8%
Viable cell percent change, Chronic/48-hour, Mean [3]: 34.67%
viability at 2.5 µM [4, 5]: 45.6%
Doxorubicin 3.5 μM: percent cell survival [4, 6]: 79.2%
Oxaliplatin 100 μM: percent cell survival [4, 7]: 91.1%
Paclitaxel 50 μM: percent cell survival [4, 8]: 105.4%
Vincristine 100 nM: percent cell survival [4, 9]: 92.1%

CCCCCCOCCCCCCCCNc1ccnc2ccccc12 [CH, N-[8-(Hexyloxy)octyl]quinolin-4-amine]
viability at 0.4 µM ([1]; 0.4 μM): 102%
viability at 1 µM [2]: 45.2%
viability at 5 µM [2]: 27.2%
Viable cell percent change, Chronic/48-hour, Mean [3]: 53.55%
viability at 0.4 µM ([4]; Homo sapiens, compound 0.4 μM alone, Wst1, vehicle = 100, read-out: No Chemo: percent cell survival): 102%
Doxorubicin 3.5 μM: percent cell survival ([4]; compound 0.4 μM + doxorubicin 3.5 μM): 62.8%
Oxaliplatin 100 μM: percent cell survival ([4]; compound 0.4 μM + oxaliplatin 100 μM): 101.1%
Paclitaxel 50 μM: percent cell survival ([4]; compound 0.4 μM + paclitaxel 50 μM): 84.6%
Vincristine 100 nM: percent cell survival ([4]; compound 0.4 μM + vincristine 100 nM): 67.4%

CCCCCCCCCCCCOCCn1cnc2cnc3ccccc3c21 [FG, 1-[2-(Dodecyloxy)ethyl]-1H-imidazo[4,5-c]quinoline]
viability at 1.5 µM ([1]; 1.5 μM): 39.2%
viability at 1 µM [2]: 85.7%
viability at 5 µM [2]: 25.5%
Viable cell percent change, Chronic/48-hour, Mean [3]: 1.15%
viability at 1.5 µM ([4]; Homo sapiens, compound 1.5 μM alone, Wst1, vehicle = 100, read-out: No Chemo: percent cell survival): 39.2%
Doxorubicin 3.5 μM: percent cell survival ([4]; compound 1.5 μM + doxorubicin 3.5 μM): 65.7%
Oxaliplatin 100 μM: percent cell survival ([4]; compound 1.5 μM + oxaliplatin 100 μM): 85.5%
Paclitaxel 50 μM: percent cell survival ([4]; compound 1.5 μM + paclitaxel 50 μM): 47.2%
Vincristine 100 nM: percent cell survival ([4]; compound 1.5 μM + vincristine 100 nM): 41%

CCCCCCOc1ccccc1C(=O)NCCCNc1ccnc2ccccc12 [EC, 2-(Hexyloxy)-N-[3-(quinolin-4-ylamino)propyl]benzamide]
viability at 2.5 µM [1]: 94.6%
Viable cell percent change, Chronic/48-hour, Mean [3]: 47.40%
viability at 2.5 µM [4, 5]: 94.6%
Doxorubicin 3.5 μM: percent cell survival [4, 6]: 82.8%
Oxaliplatin 100 μM: percent cell survival [4, 7]: 100.4%
Paclitaxel 50 μM: percent cell survival [4, 8]: 136.8%
Vincristine 100 nM: percent cell survival [4, 9]: 91.6%

CCCCCCOCCCCCCCCn1ccc2ccccc21 [FW, 1-[8-(Hexyloxy)octyl]-1H-indole]
viability at 5 µM ([1]; 5 μM): 98.1%
Viable cell percent change, Chronic/48-hour, Mean [3]: 1.27%
viability at 5 µM ([4]; Homo sapiens, compound 5 μM alone, Wst1, vehicle = 100, read-out: No Chemo: percent cell survival): 98.1%
Doxorubicin 3.5 μM: percent cell survival ([4]; compound 5 μM + doxorubicin 3.5 μM): 102.7%
Oxaliplatin 100 μM: percent cell survival ([4]; compound 5 μM + oxaliplatin 100 μM): 109.6%
Paclitaxel 50 μM: percent cell survival ([4]; compound 5 μM + paclitaxel 50 μM): 128.5%
Vincristine 100 nM: percent cell survival ([4]; compound 5 μM + vincristine 100 nM): 104.6%

CCCCCCOCCCCCCCCn1cnc(-c2ccccc2)c1 [FR, 1-[8-(Hexyloxy)octyl]-4-phenyl-1H-imidazole]
viability at 2.5 µM [1]: 101%
Viable cell percent change, Chronic/48-hour, Mean [3]: 15.96%
viability at 2.5 µM [4, 5]: 101%
Doxorubicin 3.5 μM: percent cell survival [4, 6]: 93.2%
Oxaliplatin 100 μM: percent cell survival [4, 7]: 102.5%
Paclitaxel 50 μM: percent cell survival [4, 8]: 102.5%
Vincristine 100 nM: percent cell survival [4, 9]: 99.1%

CCOCCCCCCCCn1cnc2cnc3ccccc3c21 [CD, 1-(8-Ethoxyoctyl)-1H-imidazo[4,5-c]quinoline]
viability at 2.5 µM [1]: 16.6%
Viable cell percent change, Chronic/48-hour, Mean [3]: 7.55%
viability at 2.5 µM [4, 5]: 16.6%
Doxorubicin 3.5 μM: percent cell survival [4, 6]: 19.5%
Oxaliplatin 100 μM: percent cell survival [4, 7]: 20.1%
Paclitaxel 50 μM: percent cell survival [4, 8]: 23.2%
Vincristine 100 nM: percent cell survival [4, 9]: 17.1%

CCOc1ccccc1OCCCNc1ccnc2ccccc12 [CS, N-[3-(2-Ethoxyphenoxy)propyl]quinolin-4-amine]
viability at 2.5 µM [1]: 41.3%
Viable cell percent change, Chronic/48-hour, Mean [3]: 66.27%
viability at 2.5 µM [4, 5]: 41.3%
Doxorubicin 3.5 μM: percent cell survival [4, 6]: 79%
Oxaliplatin 100 μM: percent cell survival [4, 7]: 84.2%
Paclitaxel 50 μM: percent cell survival [4, 8]: 69.7%
Vincristine 100 nM: percent cell survival [4, 9]: 82.8%

CCCCCCOc1ccccc1C(=O)NCCNc1ccnc2ccccc12 [EB, 2-(Hexyloxy)-N-[2-(quinolin-4-ylamino)ethyl]benzamide]
viability at 2.5 µM [1]: 94.4%
Viable cell percent change, Chronic/48-hour, Mean [3]: 35.89%
viability at 2.5 µM [4, 5]: 94.4%
Doxorubicin 3.5 μM: percent cell survival [4, 6]: 93.4%
Oxaliplatin 100 μM: percent cell survival [4, 7]: 98.8%
Paclitaxel 50 μM: percent cell survival [4, 8]: 143.3%
Vincristine 100 nM: percent cell survival [4, 9]: 98.2%

COc1ccccc1OCCCNc1ccnc2ccccc12 [CT, N-[3-(2-Methoxyphenoxy)propyl]quinolin-4-amine]
viability at 2.5 µM [1]: 34.5%
Viable cell percent change, Chronic/48-hour, Mean [3]: 34.36%
viability at 2.5 µM [4, 5]: 34.5%
Doxorubicin 3.5 μM: percent cell survival [4, 6]: 63.2%
Oxaliplatin 100 μM: percent cell survival [4, 7]: 71.9%
Paclitaxel 50 μM: percent cell survival [4, 8]: 46.3%
Vincristine 100 nM: percent cell survival [4, 9]: 46.3%

COCCCCCCCCn1cnc2cnc3ccccc3c21 [CE, 1-(8-Methoxyoctyl)-1H-imidazo[4,5-c]quinoline]
viability at 2.5 µM [1]: 16.2%
Viable cell percent change, Chronic/48-hour, Mean [3]: 4.71%
viability at 2.5 µM [4, 5]: 16.2%
Doxorubicin 3.5 μM: percent cell survival [4, 6]: 44.3%
Oxaliplatin 100 μM: percent cell survival [4, 7]: 18.8%
Paclitaxel 50 μM: percent cell survival [4, 8]: 23.5%
Vincristine 100 nM: percent cell survival [4, 9]: 15.6%

c1ccc(COc2ccccc2OCCCNc2ccnc3ccccc23)cc1 [CU, N-{3-[2-(Benyloxy)phenoxy]propyl}quinolin-4-amine]
viability at 2.5 µM [1]: 37.6%
Viable cell percent change, Chronic/48-hour, Mean [3]: 41.84%
viability at 2.5 µM [4, 5]: 37.6%
Doxorubicin 3.5 μM: percent cell survival [4, 6]: 65%
Oxaliplatin 100 μM: percent cell survival [4, 7]: 74.9%
Paclitaxel 50 μM: percent cell survival [4, 8]: 100.2%
Vincristine 100 nM: percent cell survival [4, 9]: 56.7%

CCCCCCOCCCCCCCCNc1cnc2ccccc2c1 [EL, N-[8-(Hexyloxy)octyl]quinolin-3-amine]
viability at 2.5 µM [1]: 41.8%
viability at 1 µM [2]: 108%
viability at 5 µM [2]: 39.4%
viability at 2.5 µM [4, 5]: 41.8%
Doxorubicin 3.5 μM: percent cell survival [4, 6]: 73.7%
Oxaliplatin 100 μM: percent cell survival [4, 7]: 99.4%
Paclitaxel 50 μM: percent cell survival [4, 8]: 86.1%
Vincristine 100 nM: percent cell survival [4, 9]: 70.8%
